Assay results reported in patent US4563467A, “Derivatives of N-iminopyridinium betaines having anti-hypertensive and salidiuretic activity and their preparation” (Provesan S.A., priority 1983, dated 1986).
Structures can show the parent of a compound that is named as a salt. Where two headings read alike, the source gives them in different places.

How the values were obtained:
[1] = Diuretic activity (method of Taylor and Topliss): elimination of urine and urine parameters over 8 hours; type: in vivo, Male Sprague-Dawley (HC/CFY) rats; details: rat; for ED50: po, from regression of log dose against percentage effect; for ED50 / Elimination of urine, 8 h: 8 h; for Elimination in the urine: Cl / Elimination in the urine: K / Elimination in the urine: Na / Osmotic pressure of urine / Urine pH / Elimination of urine, 1 h / Elimination of urine, 2 h / Elimination of urine, 3 h / Elimination of urine, 4 h / Elimination of urine, 6 h / Elimination of urine, 8 h: 40 mg/kg; for Elimination in the urine: Cl / Elimination in the urine: K / Elimination in the urine: Na / Osmotic pressure of urine / Urine pH: over 8 hours; for Elimination of urine, 1 h / Elimination of urine, 2 h / Elimination of urine, 3 h / Elimination of urine, 4 h / Elimination of urine, 6 h / Elimination of urine, 8 h: probang
Experimental: ACTIVITY Method of R. M. Taylor and […]. Med. Pharm. Chem. 1962, 4, 312 Male Sprague-Dawley (HC/CFY) rats weighting between 150 and 200 grams are used. The animals are kept without food and water for 16 hours before the start of the test. The products are administered as a suspension in a 0.5% strength carboxymethylcellulose suspension in a 0.9% strength sodium chloride solution, using a probang, the amount administered being 50 ml/kg of body weight. […] The following parameters are determined in the urine: volume (ml/kg); sodium and potassium (milliequivalents/kg/8 h) (flame photometer); chloride (milliequivalents/kg/8 h) (chloride-meter); pH/8 h (pH-meter) and osmotic pressure (osmotic millimols/kg/8 h) (osmometer). The comparsion animals are given the 0.5% strength carboxymethylcellulose suspension in a 0.9% strength sodium chloride solution in an amount of […] of body weight.

[2] = Acute toxicity, oral, mouse; type: in vivo, CFLP-RE albino mice
Experimental: The product is administered orally in suspension in 5% strength gum arabic to CFLP-RE albino mice weighing 20-25 g and to CFY-RE Sprague-Dawley rats weighing 125-175 g. The volume administered is 25 ml/kg in the mouse except for the maximum dose of 12,800 mg/kg where a volume of 50 ml/kg is administered, and 10 ml/kg in the rat except for the maximum dose of 12,800 mg/kg where a volume of 30 ml/kg is administered.
It was impossible to determine the 50 percent lethal dose since no deaths occurred.

[3] = read-out: ED50, osmotic pressure (m osmol/kg/8 h)
[4] = read-out: ED50, volume of urine (ml/kg/8 h)

Structure (SMILES) | ED50 [1, 3] [mg/kg] | ED50 [1, 4] [mg/kg] | Elimination in the urine: Cl [1] [milliequivalents/kg/8 h] | Elimination in the urine: K [1] [milliequivalents/kg/8 h] | Elimination in the urine: Na [1] [milliequivalents/kg/8 h] | Osmotic pressure of urine [1] [osmotic millimols/kg/8 h] | Urine pH [1] | Elimination of urine, 1 h [1] [mL/kg] | Elimination of urine, 2 h [1] [mL/kg] | Elimination of urine, 3 h [1] [mL/kg] | Elimination of urine, 4 h [1] [mL/kg] | Elimination of urine, 6 h [1] [mL/kg] | Elimination of urine, 8 h [1] [mL/kg] | Mortality ([2]; female, 400 mg/kg) | Mortality ([2]; female, 800 mg/kg) | Mortality ([2]; male, 400 mg/kg) | Mortality ([2]; male, 800 mg/kg)
NS(=O)(=O)c1cc(C2(O)NC(=O)c3ccccc32)ccc1Cl (stereo not shown) [Chlortalidone, reference compound] | 7.7 | 6.9 | 10.8 | 1.9 | 9.3 | 29.9 | 6.6 | 8.7 | 21.0 | 30.9 | 37.6 | 45.6 | 49.8 |  |  |  | 
NS(=O)(=O)c1cc(C(=O)[N-][n+]2ccccc2)ccc1Cl [Example 1, 1-[(4-chloro-3-sulfamylbenzoyl)-amino]pyridinium hydroxide inner salt] | 1.9 | 4.1 | 9.2 | 1.5 | 8.3 | 25.5 | 6.6 | 7.3 | 15.2 | 27.6 | 35.4 | 40.5 | 44.5 |  |  |  | 
Cc1cc(C)[n+]([N-]C(=O)c2ccc(Cl)c(S(N)(=O)=O)c2)c(C)c1 [Example 2, 1-[(4-chloro-3-sulfamylbenzoyl)-amino]-2,4,6-trimethylpyridinium hydroxide inner salt] | 1.2 | 4.7 | 11.8 | 1.7 | 9.1 | 29.7 | 6.0 | 10.4 | 22.3 | 30.2 | 36.0 | 41.5 | 45.6 | 0/4 | 0/4 | 0/4 | 0/4
Cc1cccc(C)[n+]1[N-]C(=O)c1ccc(Cl)c(S(N)(=O)=O)c1 [Example 3, 1-[(4-chloro-3-sulfamylbenzoyl)-amino]-2,6-dimethylpyridinium hydroxide inner salt] | 2.1 | 4.6 | 11.7 | 1.8 | 9.5 | 34.2 | 6.1 | 8.4 | 22.9 | 31.9 | 36.7 | 45.2 | 50.7 |  |  |  | 
NC(=O)c1ccc[n+]([N-]C(=O)c2ccc(Cl)c(S(N)(=O)=O)c2)c1 [Example 4, 1-[(4-chloro-3-sulfamylbenzoyl)-amino]-3-carbamylpyridinium hydroxide inner salt] |  |  | 7.0 | 1.1 | 6.6 | 20.8 | 6.2 | 5.8 | 8.6 | 19.5 | 24.2 | 31.1 | 37.5 |  |  |  | 
Cc1cc(C)[n+]([N-]C(=O)c2cc(S(N)(=O)=O)c(Cl)cc2NCc2ccco2)c(C)c1 [Example 5, 1-{[4-chloro-2-(2-furylmethylamino)-5-sulfamylbenzoyl]-amino}-2,4,6-trimethylpyridinium hydroxide inner salt] |  |  | 6.2 | 1.3 | 3.0 | 16.6 | 6.1 | 1.1 | 3.4 | 8.0 | 12.5 | 18.4 | 20.7 |  |  |  | 
NS(=O)(=O)c1cc(C(=O)[N-][n+]2c(-c3ccccc3)cc(-c3ccccc3)cc2-c2ccccc2)ccc1Cl [Example 6, 1-[(4-chloro-3-sulfamylbenzoyl)-amino]2,4,6-triphenylpyridinium hydroxide inner salt] |  |  | 8.1 | 1.1 | 6.6 | 25.3 | 6.0 | 6.9 | 14.2 | 19.4 | 22.2 | 26.0 | 27.4 |  |  |  | 
Cc1cc(C)[n+](NC(=O)c2ccc(Cl)c(S(N)(=O)=O)c2)c(C)c1.[Cl-] [Example 7, 1-[(4-chloro-3-sulfamylbenzoyl)-amino]-2,4,6-trimethylpyridinium chloride] |  |  | 9.3 | 1.6 |  | 31.0 | 6.3 | 6.2 | 18.6 | 28.4 | 36.1 | 47.3 | 52.4 |  |  |  | 
Cc1cc(C)[n+](NC(=O)c2cc(S(N)(=O)=O)c(Cl)cc2NCc2ccco2)c(C)c1.Cl.[Cl-] [Example 8, 1-{[4-chloro-2-(2-furylmethylamino)-5-sulfamylbenzoyl]-amino}-2,4,6-trimethylpyridinium chloride hydrochloride] |  |  | 7.2 | 1.2 | 5.9 | 23.4 | 6.7 | 0.0 | 11.9 | 19.6 | 28.5 | 34.4 | 39.2 |  |  |  | 
NS(=O)(=O)c1cc(C(=O)N[n+]2c(-c3ccccc3)cc(-c3ccccc3)cc2-c2ccccc2)ccc1Cl.[Cl-] [Example 9, 1-[(4-chloro-3-sulfamylbenzoyl)-amino]-2,4,6-triphenylpyridinium chloride] |  |  | 7.5 | 1.2 | 6.0 | 25.1 | 6.2 | 5.2 | 12.6 | 16.8 | 19.0 | 21.5 | 25.3 |  |  |  | 
